Data as given in paper PMC11321677, “Reversing MET‐Mediated Resistance in Oncogene‐Driven NSCLC by MET‐Activated Wnt Condensative Prodrug” (Advanced Science, 2024).
Non-standard residues stand in square brackets, D forms with d. Residues, ends and D or L forms follow the SMILES beside them.

Assays:
[1] = tested on: PC-9 OE cell xenografts; assay: PC-9 OE NSCLC cell xenograft mouse model; assay type: in vivo, BALB/c nude mice; settings: PC-9 OE xenograft, 3 mg kg−1 tail vein every two days, five injections
Text: To evaluate the inhibitory impact of WntSI on the Wnt/β‐catenin pathway in vivo, we established a model of PC‐9 OE cell xenografts in BALB/c nude mice (Figure S12A, Supporting Information). […] In addition, we evaluated the drug safety of CA and WntSI, including recording the weight fluctuation of mice during the treatment period as well as the detection of hematological and biochemical indicators (Figure S12F–H, Supporting Information). […] Furthermore, we conducted IHC staining and IHC scoring (Figure 5F,G) to explore the expression of c‐Met, β‐catenin pathway‐associated proteins, as well as Ki67 in the tumor tissues. […] In addition, we closely monitored the fluctuations in body weight among the four groups of mice throughout the course of treatment (Figure 5H).
5×10^6 PC‐9 OE cells were subcutaneously injected into the right flanks of BALB/c nude mice aged 5–6 weeks. The tumor volume was calculated using the equation: volume = 1/2 × length × width^2. Once the tumor volume reached 150–180 mm^3, the mice were randomly grouped. The specific groups are as follows: 1) control (PBS), CA (3 mg kg^−1), and WntSI (3 mg kg^−1); the drug was administered via tail vein every two days for a total five injections; 2) control (normal saline), Gefitinib (25 mg kg^−1 d^−1), Gefitinib combined with Savolitinib (2.5 mg kg^−1 d^−1), and Gefitinib combined with WntSI (3 mg kg^−1, every two days) groups; normal saline, Gefitinib, and Savolitinib were administered by daily gavage, while WntSI was administered via tail vein injection every two days. Tumor growth was monitored daily, and xenografts were collected for formalin‐fixed‐paraffin embedded (FFPE) or snap frozen in liquid nitrogen for subsequent experiments.

[2] = tested on: PC-9 OE cells (MET overexpression); assay: alamarBlue cell viability; assay type: cell-based
Procedure: 1 × 10^8 transducing units (TU) of lentivirus were mixed with 40 µL of HitransG P (PC‐9) or HitransG A (NCI‐H1975) infection enhancement solution and 1 mL of complete medium to infect cells in a 6‐well plate.
In the presented cell experiments, Savolitinib was administered in combination with Gefitinib or Osimertinib at a concentration of 10 µM. The cell viability was determined by alamarBlue assay (Thermo Fisher Scientific).

[3] = biological target: T1, c-Met (Homo sapiens, UniProt P08581); assay: Biotin affinity purification (pull-down) assay; assay type: binding; settings: biotin-labeled Tyr-Pep on streptavidin magnetic beads, lysed PC-9 OE cells, 4 °C, 6 h, western blotting
T1 construct: host or cells: PC-9 OE (PC-9 cells stably transduced with MET OE lentivirus)
Text: The process was successfully replicated through a coarse‐grained dynamic simulation involving the interaction between Tyr‐Pep and CA molecules, wherein the emergence of LLPS and subsequent self‐assembly into a condensate were observed (Figure 3B). […] Next, the mass ratio of 1:0.5 (Tyr‐Pep to CA) was selected for the preparation of the Wnt supramolecular inhibitor, WntSI, in order to maximize the utilization of condensate size for passive tumor targeting. […] Furthermore, the successful assembly of WntSI was once again confirmed by both Fourier‐transform infrared (FT‐IR) spectrum analysis (Figure S5C, Supporting Information) and UV–vis absorption spectrum analysis (Figure S5D, Supporting Information), providing compelling evidence through the presence of characteristic absorption peaks associated with peptide and CA. More importantly, as our design WntSI was constructed by a reversible supramolecular self‐assembly driven by LLPS, which can disassemble in response to MET (Figure 3A). Alpha Fold 2.0 accurately predicted the strong bonding ability between Tyr‐Pep and c‐Met, as depicted in Figure 3D. This prediction was further substantiated through co‐immunoprecipitation analysis involving biotin‐labeled Tyr‐Pep and c‐Met, as illustrated in Figure S5E (Supporting Information). […] The concentration of CA in their supernatant after centrifugation at 15 000 g was measured using HPLC. […]

[4] = tested on: PC-9 OE and NCI-H1975 OE cells; assay: Colony formation assay; assay type: cell-based; settings: 7–10 days, n = 3
Procedure: The PC‐9 OE and NCI‐H1975 OE cells were seeded at a low density and cultured in serum‐rich medium containing drugs for 7–10 days to assess clone formation. Subsequently, the culture medium was discarded, and the cell colonies were fixed with methanol, stained with 0.1% crystal violet, and washed with distilled water until the background was clear. The number of colonies was quantified using Image J software.

T1 sequence (P08581 25-1390): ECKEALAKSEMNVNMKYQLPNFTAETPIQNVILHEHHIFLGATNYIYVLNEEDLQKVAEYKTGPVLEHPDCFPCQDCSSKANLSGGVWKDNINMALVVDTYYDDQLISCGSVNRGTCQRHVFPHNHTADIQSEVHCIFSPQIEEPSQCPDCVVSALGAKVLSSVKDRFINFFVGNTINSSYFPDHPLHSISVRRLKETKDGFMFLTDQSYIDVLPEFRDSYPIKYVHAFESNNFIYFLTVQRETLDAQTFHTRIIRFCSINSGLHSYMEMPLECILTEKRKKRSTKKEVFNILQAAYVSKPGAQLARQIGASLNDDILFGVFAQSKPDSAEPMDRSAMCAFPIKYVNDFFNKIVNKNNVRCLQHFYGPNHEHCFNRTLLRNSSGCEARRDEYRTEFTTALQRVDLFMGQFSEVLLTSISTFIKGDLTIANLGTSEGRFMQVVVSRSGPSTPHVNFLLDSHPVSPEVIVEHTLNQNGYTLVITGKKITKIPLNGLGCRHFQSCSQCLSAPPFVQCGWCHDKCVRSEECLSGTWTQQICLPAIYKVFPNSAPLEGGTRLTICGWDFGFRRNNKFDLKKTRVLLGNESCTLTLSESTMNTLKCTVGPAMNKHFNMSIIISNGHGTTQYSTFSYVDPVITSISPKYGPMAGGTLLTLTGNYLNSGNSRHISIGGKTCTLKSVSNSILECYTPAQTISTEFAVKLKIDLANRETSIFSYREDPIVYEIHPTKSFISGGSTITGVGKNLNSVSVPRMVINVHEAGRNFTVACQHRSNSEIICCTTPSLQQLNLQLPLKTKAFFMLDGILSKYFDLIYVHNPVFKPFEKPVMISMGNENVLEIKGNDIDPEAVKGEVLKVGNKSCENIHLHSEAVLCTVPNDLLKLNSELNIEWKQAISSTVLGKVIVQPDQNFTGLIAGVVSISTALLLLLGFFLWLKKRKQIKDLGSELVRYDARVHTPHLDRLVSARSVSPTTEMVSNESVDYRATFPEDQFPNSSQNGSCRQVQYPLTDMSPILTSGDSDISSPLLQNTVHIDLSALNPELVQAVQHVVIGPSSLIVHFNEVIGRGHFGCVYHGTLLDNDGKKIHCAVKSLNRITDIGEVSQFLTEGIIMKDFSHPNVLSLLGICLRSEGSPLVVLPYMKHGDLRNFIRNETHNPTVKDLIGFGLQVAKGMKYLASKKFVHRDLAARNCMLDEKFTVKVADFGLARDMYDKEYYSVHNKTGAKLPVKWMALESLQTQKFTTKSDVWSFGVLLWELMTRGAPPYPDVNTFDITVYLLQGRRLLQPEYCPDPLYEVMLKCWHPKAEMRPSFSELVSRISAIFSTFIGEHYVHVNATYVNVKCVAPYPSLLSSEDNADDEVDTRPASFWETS

`CC(C)c1cc2c(c(O)c1O)[C@@]1(C(=O)O)CCCC(C)(C)[C@@H]1CC2` [CA, carnosic acid] was tested, and the “Levels of ALT and AST” value ([1]; n = 3) was “varying degrees of increase”, the “Levels of white blood cells (WBC), neutrophils and platelets” value ([1]; n = 3) was “significantly lower than those of the control group” and the “Weight growth rate of mice during treatment” value ([1]; n = 5) was “slowed down”.
`C[C@@H](c1ccc2nccn2c1)n1nnc2ncc(-c3cnn(C)c3)nc21` [Savolitinib] was tested, and the “Impact on the susceptibility of EGFR-TKIs” value [2] was “negligible impact”.
In the case of `CC[C@H](C)[C@H](NC(=O)[C@H](CC(C)C)NC(=O)[C@H](CC(N)=O)NC(=O)[C@@H](NC(=O)[C@@H](CCC(=O)O)NC(=O)[C@@H](Cc1c[nH]cn1)NC(=O)[C@@H](CCC(=O)O)NC(=O)[C@@H](Cc1c[nH]cn1)NC(=O)[C@@H](CCC(=O)O)NC(=O)[C@H](N)Cc1c[nH]cn1)C(C)C)C(=O)N[C@@H](CC(N)=O)C(=O)N[C@@H](Cc1ccc(O)cc1)C(=O)N[C@@H](CCC(N)=O)C(=O)N[C@@H](CC(=O)O)C(=O)N[C@@H](CC(=O)O)C(=O)N[C@@H](C)C(=O)N[C@@H](CCC(=O)O)C(=O)N[C@@H](CC(C)C)C(=O)N[C@H](Cc1c[nH]cn1)C(=O)N[C@H](Cc1c[nH]cn1)C(=O)N[C@H](Cc1c[nH]cn1)C(=O)N[C@H](CCCNC(=N)N)C(=O)N[C@H](CCCNC(=N)N)C(=O)N[C@H](CCCNC(=N)N)C(=O)N[C@H](CCCNC(=N)N)C(=O)N[C@H](Cc1c[nH]cn1)C(N)=O` [Tyr‐Pep] (H-[dH][dE][dH][dE][dH][dE]VNLINYQDDAEL[dH][dH][dH][dR][dR][dR][dR][dH]-NH2), the “Co-immunoprecipitation with c-Met” value [3] is reported as “can be recognized by c‐Met” and the “Suppressive effect on clone formation” value [4] is reported as “no impact”.
